Among the data in ChEMBL document CHEMBL1127940, “Analogs of the marine natural product scalaradial lacking the ,-unsaturated aldehyde: effects on human synovial fluid phospholipase A2 and macrophage lipid mediator production” (Bioorg Med Chem Lett, 1994) are IC50 and inhibition values, retold here.

Test [1] can be described thus: In vitro inhibition of PGE-2 production in murine resident peritoneal macrophage. Format: functional. The conditions noted are these: Mus musculus.
The species entered for test [2] is Homo sapiens. Briefly: In vitro inhibition of platelet activating factor (PAF) production in human PMN at 50 uM; not active at 50 uM. Format: functional.
Test [3] deals with T1, Phospholipase A2, membrane associated (Homo sapiens, UniProt P14555).
T1 sequence (P14555 whole entry): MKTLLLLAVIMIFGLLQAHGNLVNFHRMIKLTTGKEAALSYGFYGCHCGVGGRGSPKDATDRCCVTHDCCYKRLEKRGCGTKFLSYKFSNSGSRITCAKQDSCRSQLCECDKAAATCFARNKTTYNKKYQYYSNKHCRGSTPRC
The experiment in a line: In vitro inhibition tested against Phospholipase A2 (HSF-PLA2) by monitoring hydrolysis of [3H]- arachidonic acid labeled Escherichia coli at 50 uM.

Test [4] has as its target T2, Phospholipase A2, membrane associated (Homo sapiens) (UniProt P14555).
T2 sequence (whole entry): T1 sequence (P14555 whole entry)
Briefly: In vitro percent inhibition against Phospholipase A2 (HSF-PLA2) by monitoring hydrolysis of [3H]- arachidonic acid labeled Escherichia coli at 50 uM.

Test [5] is filed under the species Homo sapiens. Briefly: In vitro inhibition of LTB4 production in human PMN at 50 uM; not active at 50 uM. Format: functional.
The species named for test [6] is Homo sapiens. The experiment in a line: In vitro percent inhibition of platelet activating factor (PAF) production in human PMN at 10 uM. Type of test: functional.
The target in test [7] is T1, Phospholipase A2, membrane associated. The experiment in a line: In vitro inhibitory activity against human synovial fluid phospholipase A2 (HSF-PLA2) by monitoring hydrolysis of [3H]arachidonic acid labeled Escherichia coli.
The species entered for test [8] is Homo sapiens. Briefly: In vitro inhibition of platelet activating factor (PAF) production in human PMN. Format: functional.
For test [9], the species on record is Homo sapiens. Briefly: In vitro inhibition of LTB4 production in human PMN. Format: functional.

For orientation: IC50 means the concentration that inhibits the measured activity by half. Low values mean higher potency, high ones lower potency. One may read the inhibition as the change of the read-out against control, counted positive when it falls. Read a high inhibition as strong suppression.

As to `CC1(C)CCC[C@@]2(C)C1CC[C@]1(C)C2C[C@H](O)[C@@]2(C)C1CC=C(CO)[C@@H]2CO` (some centres not stated), the IC50 was 300 nM in test [1], “Not Active” in test [2], greater than 50000 nM in test [3] and “Not Active” in [5]. This molecule also returned an inhibition in test [4] of 21%.
As for `CC(=O)O[C@H]1CC2[C@@]3(C)CCCC(C)(C)C3CC[C@@]2(C)C2CC=C(C(=O)O)[C@H](C(=O)O)[C@]21C` (some centres not stated), the IC50 was found to be 200 nM in test [1] and 4800 nM in test [7]. The molecule further registered an inhibition at 10 µM in [6] of 60%.
As to `CC(=O)O[C@H]1C[C@@H]2[C@@]3(C)CCCC(C)(C)[C@@H]3CC[C@@]2(C)[C@@H]2CC=C(C=O)[C@H](C=O)[C@@]12C` [SCALARADIAL], the IC50 was 40 nM in [1], 1000 nM in test [8], 15 nM in test [7] and 1000 nM in test [9].
